According to patent publication US10300052B2, “Methods for increasing CFTR activity” (THE UAB RESEARCH FOUNDATION, priority 2012, dated 2019):

Test system: porcine trachea CFTR−/−
Test: μOCT imaging of airway epithelial function in porcine trachea, CFTR-/- animals
Details: sequential ivacaftor 10 μM, forskolin 100 nM, acetylcholine 100 μM in bath, 37° C. (FIG. 7G)
Excerpt: FIGS. 7A-7H show the effects of CFTR activators on airway epithelial function in intact porcine trachea by μOCT. FIGS. 7A-7B show representative μOCT images for a CFTR−/− (FIG. 7A) and CFTR+/+ (FIG. 7B) animal. FIGS. 7C-7F, respectively, show ASL depth (FIG. 7C), PCL depth (FIG. 7D), CBF (FIG. 7E) and MCT (FIG. 7F) measurements derived from μOCT images from CFTR−/− and CFTR+/+ animals. FIGS. 7G and 7H show the response of epithelial functional parameters, namely ASL depth and MCT in CFTR−/− (FIG. 7G) and CFTR+/+(FIG. 7H) animals in response to sequential pharmacologic intervention by ivacaftor (10 μM), forskolin (100 nM) and acetylcholine (100 μM).
To further investigate the role of CFTR activators in modulating airway epithelial cell function, CFTR activators were studied in combination with porcine trachea. In this example, porcine trachea from animals having a mutated CFTR (CFTR (−/−) and from animals having a WT-CFTR (CFTR+/+) were evaluated for ASL depth, PCL depth, CBF and MCT. The results are shown in FIGS. 7A-7H.
FIGS. 7G and 7H show the response of epithelial functional parameters, namely ASL depth, CBF and MCT in CFTR−/− and CFTR+/+ animals in response to sequential pharmacologic intervention by ivacaftor (10 μM), forskolin (100 nM) and acetylcholine (100 μM); in this experiment, acetylcholine served as a positive control to induce glandular extrusion in CF tissue). In these experiments, agonists were added to the bath solution and all experiments were conducted under physiological conditions (37° C. and 100% humidity). […] In contrast to FIG. 7G, ASL depth, CBF and MCT were all increased in response to ivacaftor treatment in CFTR+/+ animals, consistent with the results described above for human tissue.
Normal piglet tracheas were obtained from Exemplar Genetics (Sioux Center, Iowa). Tissue were dissected from one-day-old piglets and shipped on wet ice in DMEM. A modified protocol based on airway tissue handling and preparation methods developed by Ballard et al. (Am J Physiol Lung Cell Mol Physiol 298: L270-276, 2010) was employed. Tracheas were immersed in 80 mL Ringer bicarbonate solution (KRB) baths at room temperature and slowly warmed to 37° C. After four hours of pretreatment, the tracheas were removed from the KRB. Accessible mucus and liquid were aspirated from the airway lumens and the tracheal ends were cannulated so that the serosal surface was bathed in KRB [29] without contacting the mucosal surface, as previously described (Ballard et al., Am J Physiol Lung Cell Mol Physiol 298: L270-276, 2010; Martens, et al., Am J Physiol Lung Cell Mol Physiol 301: L236-246, 2011). Tracheas were allowed to equilibrate in KRB bubbled with 95% 02 and 5% CO2 at 37° C. and the luminal side exposed to conditioned air at 100% humidity for 2 hours prior to mOCT imaging (Sleigh et al., Comp Biochem Physiol A Comp Physiol 94: 359-364, 1989).
The μOCT system is a spectral-domain OCT implementation with several improvements to standard OCT that yield high resolution in both lateral and axial directions. The general layout and axial resolution characterization have been described (Liu et al., PLOSOne, 8(1), E54473-2013). A super-continuum source (Fianium SC450) provides the high-bandwidth, short coherence length light necessary for high axial resolution ([…]). A typical OCT system includes an interferometer with the reference and sample arms intersecting at a beamsplitter. The beamsplitter is replaced in μOCT with a 45 degree rod mirror, which apodizes the sample beam by introducing a circular obscuration in the center to achieve a balance of good lateral resolution (2 μm) and long depth of focus (0.2 mm). Custom software is employed to control the galvanometer scanning motors while acquiring spectral data from the line camera. […]

CC(C)(C)c1cc(C(C)(C)C)c(NC(=O)c2c[nH]c3ccccc3c2=O)cc1O [ivacaftor]
no response: ASL depth response | CBF response | MCT response
